Experimental data: patent US12521409B2, “Cognition” (priority 2023, dated 2026)
Entries after “also recorded” stand apart in the source; their conditions may differ.

Tests used:
TG2576 mice [1] = experiment: Plasma glutamate and glutamine by LC-MS in TG2576 mice on TAG-supplemented diet (Example 1B); settings: mouse, in vivo
TG2576 mice [2] = experiment: UDP N-acetyl glucosamine in brain tissue of TG2576 mice on TAG-supplemented diet, LC-MS/MS (Example 2B); assay type: in vivo, mouse
Procedure: After 6 weeks brains were excised and bisected in the sagittal plane. The hemi-brains were stored frozen (−80° C.) then thawed, weighed and homogenized in 10 volumes of MeOH/MeCN/H2O (50%/30%/20%, v/v/v). Homogenates were centrifuged at 5000 rpm for 30 min. The supernatant was passed through 1 kDa MW centrifugal filters then evaporated and resuspended in the HPLC mobile phase. UDP N-acetyl glucosamine was run on a mixed-mode hydrophilic HPLC column (150 mm×4.6 mm id, Primesep N, by SIELC), with guard under a linear gradient of 80% acetonitrile and 10 mM ammonium formate pH 4.3 to 10% MeCN and 10 mM ammonium formate over 9 min, then return to starting conditions over 1 min. UDP N-acetyl glucosamine in brain extracts was quantified against commercial standard UDP N-acetyl glucosamine detected by mass spectrometry (MS-MS) in negative ion mode, scanning for m/z 606 and identification of major collision fragments m/z 385 and 403. UDP levels were corrected for brain mass. The effect of diet was calculated using 1-tailed t-test.

TG2576 mice [3] = experiment: Morris water maze, spatial memory in TG2576 mice (Example 3B); assay type: in vivo, mouse; settings: TAG diet
Source text: The Morris water maze (MWM) has been used to measure spatial memory deficit in TG2576 mice. Mice are placed in a tub of water and containing a submerged platform. The amount of time required for a mouse to swim to the platform is referred to as the maze “escape time”. There are two testing stages in the water maze: 1. VISIBLE STAGE, in which the position of the platform is made visible by a marker pole attached to the platform, and 2. HIDDEN STAGE where the marker pole is removed and the water made opaque by the addition of white paint. Compared to wild type siblings, older TG2576 mice show increased latency to escape time.
The maze consisted of a 715 mm diameter tub filled to a depth of 70 mm. For VISIBLE STAGE testing, mice were placed in the water maze and the time they took to reach the platform was recorded with a stop watch. This testing was carried out 8 times per day for 3 days, during which the platform was moved to various positions around the maze. The walls of the maze were inscribed with 4 distinct shapes that were provided as spatial cues for learning. The HIDDEN STAGE testing was carried out for 7 days, 4 times per day. The position of the platform was fixed, but mice were placed in the maze at different positions for each test.
[…].
As subjects learned to navigate and find the hidden platform, their escape time was reduced. […]

Question: With tetra-acetyl glucosamine [TAG] as the substance, how does the “Plasma concentration of glutamate” value (TG2576 mice [1]) read?
Answer: The value was 1.05 ± 0.094 RU/ml.

Question: And the “Plasma concentration of glutamine” value (TG2576 mice [1])?
Answer: Its value is 6.77 ± 1.05 RU/ml.

Question: And the “Plasma glutamate level compared to control mice (in words)” value (TG2576 mice [1])?
Answer: The value was “significantly lower; also recorded: reduced”.

Question: What about the “Plasma glutamine level compared to control mice (in words)” value (TG2576 mice [1]) of the same substance?
Answer: Its value is “trend of increased”.

Question: What about the “UDP N-acetyl glucosamine in brain” value (TG2576 mice [2]; TG2576 mice, 0.45% (w/w) TAG diet for 6 weeks, n = 5, p=0.037 vs control diet) of the same substance?
Answer: Its value is 28.3 ± 2.13 ng/mg brain fwt.

Question: And the “Increase in levels of UDP N-acetyl glucosamine in brain vs control diet” value (TG2576 mice [2]; TG2576 mice, 6 weeks of TAG-supplemented diet)?
Answer: The value was 40%.

Question: What about the “UDP N-acetyl glucosamine in brain tissue compared to control (in words)” value (TG2576 mice [2]; mice models of AD fed a diet supplemented with TAG) of the same substance?
Answer: The value was “increased”.

Question: What about the “Effect on latency to escape time / spatial working memory in Morris water maze (in words)” value (TG2576 mice [3]; after 7 days) of the same substance?
Answer: Its value is “decreased; also recorded: significantly improved”.

Question: And the “Mean escape time ± SE” value (TG2576 mice [3]; water maze after 7 days, n = 8, in s (unit assumed))?
Answer: The value was 9.31 ± 0.80.
